In patent publication US20100267561A1, “HERBICIDAL PYRIDAZINONE DERIVATIVES” (priority 2007, published 2010):

Experiments:
Assay type in all cases: in vivo
rice (Oryza sativa) = test: Test B flooded paddy test plant response
Method in brief: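 Step one: raise plants to 2 leaves. Step two: flood pots 3 cm over the soil and apply compound into the water, keeping this depth. Step three: after 13–15 greenhouse days, score visually versus controls, 0–100, where 100 means complete control.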

[1] = test system: large crabgrass (Digitaria sanguinalis); test: Test B pre-/postemergence plant response
Method in brief: (§1)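 Visual scoring from 0 (no effect) to 100 (complete control) against untreated controls was done 13 to 15 days after greenhouse treatment. Chemicals were formulated in a surfactant-containing non-phytotoxic solvent and applied to soil preemergence or to 1- to 4-leaf (2-18 cm) plants postemergence.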

[2] = test system: giant foxtail (Setaria faberii); test: Test B pre-/postemergence plant response
Method in brief: as §1

[3] = test system: johnsongrass (Sorghum halepense); test: Test B pre-/postemergence plant response
Method in brief: as §1

[4] = test system: catchweed bedstraw (Galium aparine); test: Test B pre-/postemergence plant response; settings: Preemergence, scale 0 to 100
Method in brief: as §1

kochia (Kochia scoparia) = test: Test B pre-/postemergence plant response
Method in brief: as §1

[5] = test system: goosegrass (Eleusine indica); test: Test B pre-/postemergence plant response
Method in brief: as §1

[6] = test system: lambsquarters (Chenopodium album); test: Test B pre-/postemergence plant response
Method in brief: as §1

[7] = test system: Italian ryegrass (Lolium multiflorum); test: Test B pre-/postemergence plant response
Method in brief: as §1

[8] = test system: velvetleaf (Abutilon theophrasti); test: Test B pre-/postemergence plant response
Method in brief: as §1

[9] = test system: bermudagrass (Cynodon dactylon); test: Test B pre-/postemergence plant response
Method in brief: as §1

[10] = test system: pigweed (Amaranthus retroflexus); test: Test B pre-/postemergence plant response
Method in brief: as §1

[11] = test system: morningglory (Ipomoea coccinea); test: Test B pre-/postemergence plant response
Method in brief: as §1

soybean (Glycine max) = test: Test B pre-/postemergence plant response
Method in brief: as §1

[12] = Postemergence, 31 g ai/ha, scale 0 to 100, 0 no effect, 100 complete control
[13] = Postemergence, 62 g ai/ha, scale 0 to 100
[14] = Postemergence, 125 g ai/ha, scale 0 to 100
[15] = Postemergence, 250 g ai/ha, scale 0 to 100
[16] = Preemergence, 31 g ai/ha, 0 to 100 scale, 0 no effect, 100 complete control
[17] = Preemergence, 62 g ai/ha, scale 0 to 100
[18] = Preemergence, 125 g ai/ha, scale 0 to 100
[19] = Preemergence, 250 g ai/ha, scale 0 to 100

Substance: 5-[3-(4-chlorophenyl)-5-methyl-1H-pyrazol-1-yl]-1,6-dihydro-1-methyl-6-oxo-4-pyridazinyl-1-methylethyl carbonate [Compound 7]
- Plant response rating, Rice (rice (Oryza sativa); Flood (flooded paddy test), 62 g ai/ha, scale 0 to 100, 0 no effect, 100 complete control): 30
- Plant response rating, Rice (rice (Oryza sativa); Flood (flooded paddy test), 125 g ai/ha, scale 0 to 100, 0 no effect, 100 complete control): 45
- Plant response rating, Rice (rice (Oryza sativa); Flood (flooded paddy test), 250 g ai/ha, scale 0 to 100, 0 no effect, 100 complete control): 65
- Plant response rating, Rice (rice (Oryza sativa); Flood, 31 g ai/ha, scale 0 to 100): 20
- Plant response rating, Crabgrass, Large [1, 12]: 100
- Plant response rating, Crabgrass, Large [1, 13]: 100
- Plant response rating, Crabgrass, Large [1, 14]: 100
- Plant response rating, Crabgrass, Large [1, 15]: 100
- Plant response rating, Crabgrass, Large [1, 16]: 100
- Plant response rating, Crabgrass, Large [1, 17]: 100
- Plant response rating, Crabgrass, Large [1, 18]: 100
- Plant response rating, Crabgrass, Large [1, 19]: 100
- Plant response rating, Foxtail, Giant [2, 12]: 98
- Plant response rating, Foxtail, Giant [2, 13]: 100
- Plant response rating, Foxtail, Giant [2, 14]: 100
- Plant response rating, Foxtail, Giant [2, 15]: 100
- Plant response rating, Foxtail, Giant [2, 16]: 100
- Plant response rating, Foxtail, Giant [2, 17]: 100
- Plant response rating, Foxtail, Giant [2, 18]: 100
- Plant response rating, Foxtail, Giant [2, 19]: 100
- Plant response rating, Johnsongrass [3, 14]: 0
- Plant response rating, Johnsongrass [3, 15]: 0
- Plant response rating, Johnsongrass [3, 16]: 75
- Plant response rating, Johnsongrass [3, 17]: 98
- Plant response rating, Johnsongrass [3, 18]: 100
- Plant response rating, Johnsongrass [3, 19]: 100
- Plant response rating, Galium ([4]; 62 g ai/ha): 0
- Plant response rating, Galium ([4]; 125 g ai/ha): 80
- Plant response rating, Galium ([4]; 250 g ai/ha): 80
- Plant response rating, Kochia (kochia (Kochia scoparia); [12]): 0
- Plant response rating, Kochia (kochia (Kochia scoparia); [13]): 0
- Plant response rating, Kochia (kochia (Kochia scoparia); [14]): 0
- Plant response rating, Kochia (kochia (Kochia scoparia); [15]): 10
- Plant response rating, Kochia (kochia (Kochia scoparia); [16]): 0
- Plant response rating, Kochia (kochia (Kochia scoparia); [17]): 0
- Plant response rating, Kochia (kochia (Kochia scoparia); [18]): 0
- Plant response rating, Kochia (kochia (Kochia scoparia); [19]): 0
- Plant response rating, Goosegrass [5, 12]: 95
- Plant response rating, Goosegrass [5, 13]: 100
- Plant response rating, Goosegrass [5, 14]: 100
- Plant response rating, Goosegrass [5, 15]: 100
- Plant response rating, Goosegrass [5, 16]: 85
- Plant response rating, Goosegrass [5, 17]: 90
- Plant response rating, Goosegrass [5, 18]: 100
- Plant response rating, Goosegrass [5, 19]: 100
- Plant response rating, Lambsquarters [6, 12]: 0
- Plant response rating, Lambsquarters [6, 13]: 0
- Plant response rating, Lambsquarters [6, 14]: 0
- Plant response rating, Lambsquarters [6, 15]: 10
- Plant response rating, Lambsquarters [6, 16]: 30
- Plant response rating, Lambsquarters [6, 17]: 30
- Plant response rating, Lambsquarters [6, 18]: 90
- Plant response rating, Lambsquarters [6, 19]: 100
- Plant response rating, Ryegrass, Italian [7, 12]: 95
- Plant response rating, Ryegrass, Italian [7, 13]: 100
- Plant response rating, Ryegrass, Italian [7, 14]: 100
- Plant response rating, Ryegrass, Italian [7, 15]: 100
- Plant response rating, Ryegrass, Italian [7, 16]: 90
- Plant response rating, Ryegrass, Italian [7, 17]: 100
- Plant response rating, Ryegrass, Italian [7, 18]: 100
- Plant response rating, Ryegrass, Italian [7, 19]: 100
- Plant response rating, Velvetleaf [8, 12]: 0
- Plant response rating, Velvetleaf [8, 13]: 0
- Plant response rating, Velvetleaf [8, 14]: 0
- Plant response rating, Velvetleaf [8, 15]: 0
- Plant response rating, Velvetleaf [8, 16]: 0
- Plant response rating, Velvetleaf [8, 17]: 0
- Plant response rating, Velvetleaf [8, 18]: 0
- Plant response rating, Velvetleaf [8, 19]: 0
- Bermudagrass plant response rating ([9]; 250 g ai/ha, preemergence, 0-100 scale): 100
- Plant response rating, Bermudagrass [9, 12]: 100
- Plant response rating, Bermudagrass [9, 13]: 100
- Plant response rating, Bermudagrass [9, 14]: 100
- Plant response rating, Bermudagrass [9, 15]: 100
- Plant response rating, Bermudagrass [9, 16]: 60
- Plant response rating, Bermudagrass [9, 17]: 90
- Plant response rating, Bermudagrass [9, 18]: 90
- Plant response rating, Pigweed [10, 12]: 0
- Plant response rating, Pigweed [10, 13]: 0
- Plant response rating, Pigweed [10, 14]: 0
- Plant response rating, Pigweed [10, 15]: 20
- Plant response rating, Pigweed [10, 16]: 85
- Plant response rating, Pigweed [10, 17]: 100
- Plant response rating, Pigweed [10, 18]: 100
- Plant response rating, Morningglory [11, 12]: 0
- Plant response rating, Morningglory [11, 13]: 0
- Plant response rating, Morningglory [11, 14]: 0
- Plant response rating, Morningglory [11, 15]: 0
- Plant response rating, Morningglory [11, 16]: 0
- Plant response rating, Morningglory [11, 17]: 0
- Plant response rating, Morningglory [11, 18]: 0
- Plant response rating, Morningglory [11, 19]: 0
- Plant response rating, Soybean (soybean (Glycine max); [12]): 0
- Plant response rating, Soybean (soybean (Glycine max); [13]): 0
- Plant response rating, Soybean (soybean (Glycine max); [18]): 0
- Plant response rating, Soybean (soybean (Glycine max); [19]): 0
